Reference: patent US20140329755A1, “COMBINATION THERAPY FOR THE TREATMENT OF ARRHYTHMIAS OR HEART FAILURE” (Gilead Sciences, Inc., priority 2013, published 2014)
pIC50: −log10 of the molar value. Like-named read-outs stand apart in the source and are kept apart here.

Tests used:
[1] = system: isolated rat right atria; test: ATX-II-induced arrhythmias in spontaneously beating isolated rat right atria (arrhythmia score); conditions: for pIC50: isolated rat right atria, read-out: IC50, prevention of ATX-II induced arrhythmias and diastolic dysfunction
Method: (§1) Rats were anesthetized by intraperitoneal injection of 60 mg/kg ketamine and 8 mg/kg xylazine. The heart was rapidly removed and immersed in oxygenated Krebs-Henseleit buffer (in mmol/L: 118 NaCl, 4.8 KCl, 1.2 KH2PO4, 2.5 CaCl2, 1.2, MgSO4, 2 pyruvic acid, 5.5 glucose, 0.5 Na2EDTA, and 25 NaHCO3, pH 7.4). Rat right atria were quickly excised and suspended in a chamber of the Danish Myo Technologies (DMT) myograph containing 8 ml of oxygenated Krebs-Henseleit buffer. Mechanical and electrical changes were measured simultaneously in spontaneously beating atria. Isometric tension was recorded by a force transducer connected to a PowerLab data acquisition system (AD Instruments, Colorado Springs, Colo.). A bipolar electrode was attached to the surface of the atrium to record an electrogram. After stabilization, the atria were preincubated with a late INa inhibitor (0.1 μmol/L GS967 or 3 μmol/L ranolazine), a CaMKII inhibitor ((0.3 μmol/L AIP or 0.3 μmol/L KN-93) or their combination for 30 min, then treated with 50 nmol/L ATX-II to induce arrhythmias and diastolic dysfunction.
(§2) Isolated right atria beat spontaneously at a rate of 298+12 bpm. ATX-II induced premature beats, tachyarrhythmia and fibrillation in rat isolated right atria. Arrhythmias were recorded for 30 min following ATX-II treatment, and quantified using an arbitrary numerical grading of perceived severity as described previously (32) and shown in Table 1.

[2] = system: isolated rat right atria; test: ATX-II-induced increase of diastolic tension in isolated rat right atria; conditions: 3 μM RAN, 0.1 μM GS-967, 0.3 μM KN-93, 0.3 μM AIP, alone or combined, 50 nmol/L ATX-II
Method: as §1

[3] = system: isolated rat right atria; test: ATX-II-induced AF in isolated rat right atria; conditions: 3 μmol/L ranolazine, 100 nmol/L GS967, 300 nmol/L KN-93, 300 nmol/L AIP, alone or combined; FIG. 1
Method: as §1, §2

[4] = system: isolated rat atrial myocytes; test: ATX-II-induced diastolic Ca2+ increase in isolated rat atrial myocytes; type: cell-based; conditions: 100 nmol/L GS967, 300 nmol/L AIP, alone or combined; FIG. 3
Method: Adult male rats were anesthetized and hearts were rapidly removed and perfused in a retrograde mode (Langendorff preparation) with a modified Tyrode solution containing (in mmol/L): NaCl (135), KCl (4.6), MgCl2 (1.1), NaH2PO4 (1) glucose (10), HEPES (10), pH 7.4. Hearts were perfused for 5 min with a nominal Ca^2+-free Tyrode solution, then with a low Ca^2+ (2 µmol/L) solution containing 0.896 mg/ml collagenase type II (Worthington, USA) and 0.68 mg/ml bovine serum albumin (BSA) for 8-11 min at 37° C. […]
[Molecular Probes, USA], indo-1 AM [Molecular Probes] or 5 μmol/L Asante NaTRIUM Green 2 AM (Teflabs, USA) by incubation for 25 min at 23° C. in bath solution containing 1.0 mmol/L Ca^2+, and 2.5 μmol/L pluronic acid (Molecular Probes). Fluo-4 was excited at 488 nm, and the fluorescence was acquired at wavelengths >505 nm in the line scan mode or XY mode of the confocal system. Asante NaTRIUM Green 2 was excited at 543 nm, and fluorescence was acquired at wavelengths >560 nm in the XY scan mode. Intracellular calcium concentrations were monitored in electrically stimulated cells loaded with indo-1 AM using an IonOptix spectrophotometer (IonOptix, Milton, Mass.). […] Emitted fluorescence (405 nm and 485 nm) was detected by a photomultiplier tube. […] Fluorescent images were analyzed using ImageJ software (NIH) and Origin 8.1 (OriginLab, USA).

[5] = system: late INa; conditions: cited from earlier work
[6] = system: late INa; conditions: isolated hearts; read-out: IC50, ATX-II-induced late INa; cited from earlier work
[7] = target: peak INa (Homo sapiens, UniProt Q14524); conditions: cited from earlier work
[8] = system: isolated ventricular myocytes and hearts; conditions: cited from earlier work
[9] = 3 μM RAN, 0.1 μM GS-967, 0.3 μM KN-93, 0.3 μM AIP, alone or combined, 30 min preincubation, then 50 nmol/L ATX-II
[10] = Rattus norvegicus, 3 μM RAN, 0.1 μM GS-967, 0.3 μM KN-93, 0.3 μM AIP, alone or combined, 30 min preincubation, then 50 nmol/L ATX-II, read-out: measured % Inhibition of ATX-II-induced arrhythmias
[11] = Rattus norvegicus, read-out: Measured % Inhibition of ATX-II-induced increase of diastolic tension

Sequence of peak INa (Q14524 whole entry): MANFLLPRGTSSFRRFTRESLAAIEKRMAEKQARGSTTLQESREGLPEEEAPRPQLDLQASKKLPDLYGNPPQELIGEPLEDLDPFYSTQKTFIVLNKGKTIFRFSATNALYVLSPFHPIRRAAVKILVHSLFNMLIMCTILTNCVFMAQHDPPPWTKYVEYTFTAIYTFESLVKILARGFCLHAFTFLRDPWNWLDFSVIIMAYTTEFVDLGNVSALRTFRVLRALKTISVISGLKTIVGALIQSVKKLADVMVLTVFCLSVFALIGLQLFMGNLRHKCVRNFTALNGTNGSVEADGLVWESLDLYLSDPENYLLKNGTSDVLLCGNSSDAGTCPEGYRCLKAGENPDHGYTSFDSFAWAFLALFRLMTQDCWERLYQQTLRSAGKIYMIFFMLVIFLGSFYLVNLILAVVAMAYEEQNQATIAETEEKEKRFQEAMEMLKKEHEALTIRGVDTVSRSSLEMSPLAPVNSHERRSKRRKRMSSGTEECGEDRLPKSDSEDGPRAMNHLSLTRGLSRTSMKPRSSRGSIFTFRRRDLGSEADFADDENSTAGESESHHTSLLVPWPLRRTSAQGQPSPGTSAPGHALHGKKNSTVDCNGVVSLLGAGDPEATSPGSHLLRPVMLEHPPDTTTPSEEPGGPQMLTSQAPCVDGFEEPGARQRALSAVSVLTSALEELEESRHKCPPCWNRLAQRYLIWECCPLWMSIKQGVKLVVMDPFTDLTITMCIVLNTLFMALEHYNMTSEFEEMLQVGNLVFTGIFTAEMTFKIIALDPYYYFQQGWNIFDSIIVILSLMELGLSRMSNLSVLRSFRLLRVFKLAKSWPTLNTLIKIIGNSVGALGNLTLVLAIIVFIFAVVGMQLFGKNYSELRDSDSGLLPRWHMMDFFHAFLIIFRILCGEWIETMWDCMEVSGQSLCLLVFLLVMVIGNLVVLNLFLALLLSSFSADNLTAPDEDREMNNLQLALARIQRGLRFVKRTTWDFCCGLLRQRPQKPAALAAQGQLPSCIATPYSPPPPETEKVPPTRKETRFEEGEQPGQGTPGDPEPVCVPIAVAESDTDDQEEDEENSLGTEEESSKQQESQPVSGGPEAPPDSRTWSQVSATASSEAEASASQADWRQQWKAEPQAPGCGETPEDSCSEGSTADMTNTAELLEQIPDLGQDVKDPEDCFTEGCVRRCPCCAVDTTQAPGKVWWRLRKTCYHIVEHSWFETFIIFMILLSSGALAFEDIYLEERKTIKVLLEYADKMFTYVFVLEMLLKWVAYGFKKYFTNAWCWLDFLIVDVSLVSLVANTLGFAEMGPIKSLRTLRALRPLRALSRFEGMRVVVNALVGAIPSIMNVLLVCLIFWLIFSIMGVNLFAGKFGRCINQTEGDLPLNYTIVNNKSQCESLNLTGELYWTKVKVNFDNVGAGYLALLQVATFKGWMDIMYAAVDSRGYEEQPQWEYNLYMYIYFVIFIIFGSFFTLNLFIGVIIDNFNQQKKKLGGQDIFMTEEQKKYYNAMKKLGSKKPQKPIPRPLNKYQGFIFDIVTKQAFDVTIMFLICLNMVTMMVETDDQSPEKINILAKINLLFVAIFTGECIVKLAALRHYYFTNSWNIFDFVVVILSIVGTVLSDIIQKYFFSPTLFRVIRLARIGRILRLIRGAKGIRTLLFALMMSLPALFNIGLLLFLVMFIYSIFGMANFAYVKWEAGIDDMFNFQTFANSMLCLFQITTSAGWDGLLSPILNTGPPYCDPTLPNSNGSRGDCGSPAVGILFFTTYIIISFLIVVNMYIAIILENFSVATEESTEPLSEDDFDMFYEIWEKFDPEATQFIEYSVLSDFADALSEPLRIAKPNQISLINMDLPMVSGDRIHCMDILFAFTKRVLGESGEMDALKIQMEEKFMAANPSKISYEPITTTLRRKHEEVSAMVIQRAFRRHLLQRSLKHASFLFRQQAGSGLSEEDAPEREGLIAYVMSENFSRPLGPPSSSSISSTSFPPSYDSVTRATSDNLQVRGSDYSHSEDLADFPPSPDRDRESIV

| Structure (SMILES) | measured % Inhibition of ATX-II-induced arrhythmias [1, 9] [%] | measured % Inhibition of ATX-II-induced arrhythmias ([1]; 3 μM RAN, 0.1 μM GS-967, 0.3 μM KN-93, 0.3 μM AIP, alone or combined, 30 min preincubation, then 50 nmol/L ATX-II, listed as RAN) [%] | pIC50 [1] | Measured % Inhibition of ATX-II-induced increase of diastolic tension [2] [%] | Measured % Inhibition of ATX-II-induced increase of diastolic tension ([2]; listed as RAN) [%] | effect on ATX-II-induced AF [3] | inhibition at 0.1 µM [1, 10] [%] | inhibition at 0.1 µM [2, 11] [%] | inhibition of the ATX-II-induced increase of diastolic Ca2+ [4] [%] | pIC50 ([5]; ventricular myocytes, read-out: IC50, ATX-II-induced late INa) | reduction of late INa and arrhythmias compared with flecainide or ranolazine ([5]; vs flecainide or ranolazine) | pIC50 [6] | Reduction of peak INa ([7]; holding potential of −120 mV) | Reduction of peak INa ([7]; holding potential −80 mV) | proarrhythmic effects (afterdepolarizations and torsades de pointes) of ATX-II and E-4031 [8] | inhibition at 0.3 µM [1, 10] [%] | effect on ATX-II induced arrhythmias and diastolic dysfunction ([1]; rat right atria) | inhibition at 0.3 µM [2, 11] [%] |
| --- | --- | --- | --- | --- | --- | --- | --- | --- | --- | --- | --- | --- | --- | --- | --- | --- | --- | --- |
| COc1ccccc1OCC(O)CN1CCN(CC(=O)Nc2c(C)cccc2C)CC1 (racemic) [ranolazine, (±)—N-(2,6-dimethylphenyl)-4-[2-hydroxy-3-(2-methoxyphenoxy)-propyl]-1-piperazineacetamide] | 28 | 23.8 ± 3.1 | 4.83 | 10.4 | 5.5 ± 1.5 | failed to attenuate |  |  |  |  |  |  |  |  |  |  |  |  |
| FC(F)(F)Oc1ccc(-c2ccc3nnc(C(F)(F)F)n3c2)cc1 [GS-967, 6-[4-(trifluoromethoxy)phenyl]-3-(trifluoromethyl)[1,2,4]triazolo[4,3-a]pyridine] | 34.2 ± 4.8 |  | 5.89 |  |  | failed to attenuate | 34 | 9.1 | 13 | 6.89 | more potent and effective | 6.68 | minimal | increased | prevented and reversed |  |  |  |
| COc1ccc(S(=O)(=O)N(CCO)c2ccccc2CN(C)C/C=C/c2ccc(Cl)cc2)cc1 [KN-93] | 24.1 ± 7.6 |  |  |  |  | failed to attenuate |  |  |  |  |  |  |  |  |  | 23 | prevented | 8.4 |
